Source: US20240002899A1 (priority 2022, published 2024)
Like-named read-outs stand apart in the source and are kept apart here.

Test system: VSV (ATCC VR-1238)
Format: cell-based, vesicular stomatitis virus

SMILES: Cc1cc2nc3c(=O)[nH]c(=O)nc-3n(C[C@H](O)[C@H](O)[C@H](O)CO)c2cc1C [riboflavin]
- MVEPI of VSV in plasma (intermediate-acting RUV: 311 nm, irradiation dose 6.49 J/mL): 4.04
- MVEPI of VSV in plasma (weak-acting (low-acting) RUV: 365 nm, irradiation dose 12.56 J/mL): 1.77
